Experiments:
[1] = test system: immortalized megakaryocyte cell line MKCL #12-23 cre2; test: Time course of VENUS expression and platelet number with or without SR1 on 10T1/2R feeder cells, FACS; type: cell-based, human; conditions: 0.75 μM SR1 with 10 μM Y-27632, TPO, SCF; day 0 to day 7
Procedure: Continuing, the immortalized megakaryocyte cell line was cultured on 10T1/2R feeder cells in differentiation medium containing 50 ng/ml of TPO and 50 ng/ml of SCF or differentiation medium containing 0.75 μM SR1, 10 μM Y-27632, 50 ng/ml of TPO and 50 ng/ml of SCF, followed by suspending the cells and harvesting the supernatant on day 0, day 1, day 3, day 4, day 6 and day 7 of culturing and analyzing the cells by FACS after staining with anti-CD41a antibody and anti-CD42b antibody.

[2] = test system: megakaryocyte cells (non-immortalized) derived from iPS cells (TkDA3-4); test: Platelet production of iPS cell (TkDA3-4)-derived megakaryocyte cells in absence of feeder cells, FACS; type: cell-based; conditions: 10 days, 1 μM C59, 3.3 μM TCS-359, 0.75 μM SR1
Procedure: After culturing iPS cells (TkDA3-4), the colonies were detached with a cell scraper and cultured in differentiation medium on 10T1/2 feeder cells following the addition of […] of VEGF in accordance with Takayama, N., et al., Blood, 111, pp. 5298-5306, 2008. Fourteen days later, the cells were recovered using a cell scraper and cultured for 10 days in the absence of feeder cells following the addition of 25 U/mL of heparin, 10 μM Y-27632, 100 ng/ml of TPO and 50 ng/ml of SCF, and further adding 0.1% DMSO, 0.75 μM SR1, 1 μM C59 (Albiochem) or 3.3 μM TCS-359 (Santa Cruz Biotechnology, Inc.). Culturing was also carried out in the same manner using feeder cells. The resulting cells were suspended and the supernatant was harvested followed by analyzing by FACS after staining with anti-CD41a antibody and anti-CD42b antibody (FIG. 10).

[3] = test system: TUBB1 expression (VENUS reporter) in immortalized megakaryocyte cell line MKCL #12-23 cre2; test: Secondary screening: VENUS fluorescence intensity in reporter immortalized megakaryocyte cell line at four concentrations; type: cell-based, human; conditions: 10 μM, 3.3 μM, 1.1 μM and 0.4 μM compound, day 7
Procedure: Secondary screening consisted of seeding the immortalized megakaryocyte cell line obtained according to the method described above into a 96-well dish and culturing after adding 10 μM Y-27632, 50 ng/ml of TPO, 50 ng/ml of SCF and the primary candidate compounds at concentrations of 10 μM, 3.3 μM, 1.1 μM and 0.4 μM each. The cells were also cultured in differentiation medium containing 0.75 μM SR1, 10 μM Y-27632, 50 ng/ml of TPO and 50 ng/ml of SCF (positive control) or differentiation medium containing 0.1% DMSO, 10 μM Y-27632, 50 ng/ml of TPO and 50 ng/ml of SCF (negative control). On day 7 of culturing, the fluorescence intensity of VENUS in each compound group was measured with Array Scan VTI (Thermo Scientific), and the value of fluorescence intensity of each compound was corrected according to the fluorescence intensity of the positive control (assigned a value of 100%) and the fluorescence intensity of the negative control (assigned a value of 0%). […] The secondary candidate compounds consisted of 35 types of compounds, and included, for example, TCS-359 (CAS NO. 301305-73-7, Santa Cruz Biotechnology, Inc.) and C59 (CAS NO. 1243243-89-1).

[4] = test system: immortalized megakaryocyte cell line MKCL #12-23 cre2; test: Platelet production by immortalized megakaryocyte cell line, FACS of supernatant (anti-CD41a, anti-CD42b); type: cell-based, human; conditions: 10 μM, 3.3 μM, 1.1 μM and 0.4 μM compound, day 7, 6-well dish
Procedure: Continuing, the effect of promoting platelet production was confirmed for 28 compounds from among the secondary candidate compounds excluding duplicate compounds and compounds that were unable to be used commercially. The above-mentioned immortalized megakaryocyte cell line was cultured in a 6-well dish in differentiation medium containing each of the compounds at concentrations of 10 μM, 3.3 μM, 1.1 μM and 0.4 μM, 10 μM Y-27632, 50 ng/ml of TPO and 50 ng/ml of SCF, differentiation medium containing 0.75 μM SR1, 10 μM Y-27632, 50 ng/ml of TPO and 50 ng/ml of SCF (positive control), or differentiation medium containing 0.1% DMSO, 10 μM Y-27632, 50 ng/ml of TPO and 50 ng/ml of SCF (negative control), followed by suspending the cells and harvesting the supernatant on day 7 of culturing and analyzing by FACS after staining with anti-CD41a antibody and anti-CD42b antibody. The relative number of platelets was calculated by correcting the number of platelets in the case of using each candidate compound with the number of platelets of the positive control (assigned a value of 100%) and the number of platelets of the negative control (assigned a value of 0%) (FIG. 9).

Compound	expression level of VENUS [1]	number of platelets produced [1]	ability to produce platelets compared with SR1 [2]	concentration dependency of VENUS fluorescence intensity [3]	relative number of platelets (positive control 0.75 μM SR1 = 100%, negative control 0.1% DMSO = 0%) [4]
CC(C)n1cnc2c(NCCc3ccc(O)cc3)nc(-c3csc4ccccc34)nc21 [SR1, StemRegenin 1]	confirmed to rise	confirmed to increase	–	–	–
COc1ccc(C(=O)Nc2sc3c(c2C(N)=O)CCCC3)cc1OC [TCS-359]	–	–	equal to or greater than that of SR1	concentration dependency was observed	–
Cc1cc(-c2ccc(CC(=O)Nc3ccc(-c4cccnc4)cc3)cc2)ccn1 [C59]	–	–	equal to or greater than that of SR1	concentration dependency was observed	potent platelet inducer
